# In ChEMBL document CHEMBL5244247, “Natural and synthetic coumarins as antileishmanial agents: A review” (Eur J Med Chem, 2020):
# Experiments:
# [1] = system: Leishmania major; test: Antileishmanial activity against promastigote form of Leishmania major assessed as inhibition of parasite growth by MTT colorimetric cell viability assay; format: functional, organism-based
# [2] = system: Leishmania donovani; test: Antileishmanial activity against amastigote form of Leishmania donovani; format: functional, organism-based
# [3] = system: Leishmania donovani; test: Antileishmanial activity against promastigote form of Leishmania donovani; format: functional, organism-based
# [4] = system: Leishmania amazonensis; test: Antileishmanial activity against intracellular Leishmania amazonensis MHOM/BR/75/Josefa amastigotes infected in BALB/c mouse peritoneal macrophages assessed as parasite growth inhibition incubated for 24 hrs by regression analysis; format: functional, organism-based; conditions: Peritoneal macrophage
# [5] = system: Leishmania amazonensis; test: Antileishmanial activity against promastigote form of Leishmania amazonensis assessed as parasite growth inhibition incubated for 72 hrs by regression analysis; format: functional, organism-based
# [6] = system: Leishmania panamensis; test: Antileishmanial activity against intracellular Leishmania panamensis amastigotes infected in human U-937 cells assessed as inhibition incubated for 72 hrs by flow cytometry; format: functional, organism-based; conditions: U-937, 72 h
# [7] = system: Leishmania panamensis; test: Antileishmanial activity against intracellular Leishmania panamensis amastigotes infected in human U-937 cells assessed as inhibition at 20 ug/mL incubated for 72 hrs by flow cytometry relative to control; format: functional
# [8] = system: Leishmania amazonensis; test: Antileishmanial activity against amastigote form of Leishmania amazonensis assessed as parasite growth inhibition; format: functional, organism-based
# [9] = system: Leishmania braziliensis; test: Antileishmanial activity against promastigote form of Leishmania braziliensis; format: functional, organism-based; conditions: Leishmania braziliensis
# [10] = system: Leishmania amazonensis; test: Antileishmanial activity against promastigote form of Leishmania amazonensis; format: functional, organism-based
# [11] = system: Leishmania infantum; test: Antileishmanial activity against promastigote form of Leishmania infantum; format: functional, organism-based
# [12] = system: Leishmania major; test: Antileishmanial activity against promastigote form of Leishmania major assessed as inhibition at 100 uM incubated for 72 hrs by MTT assay relative to control; format: functional
# [13] = system: Leishmania amazonensis; test: Antileishmanial activity against promastigote form of Leishmania amazonensis assessed as parasite growth inhibition incubated for 72 hrs by neubauer counting chamber analysis; format: functional, organism-based
# [14] = system: Leishmania amazonensis; test: Antileishmanial activity against promastigote form of Leishmania amazonensis assessed as inhibition of parasite growth at 200 uM incubated for 72 hrs by neubauer counting chamber analysis relative to control; format: functional
# [15] = Selectivity index, ratio of CC50 for cytotoxicity against mouse J774G8 cells to IC50 for antileishmanial activity against intracellular Leishmania amazonensis MHOM/BR/75/Josefa amastigotes infected in BALB/c mouse peritoneal macrophages; format: toxicity, cell-based; conditions: read-out: Ratio CC50/IC50
# [16] = system: Leishmania donovani; test: Antileishmanial activity against amastigote form of Leishmania donovani at 50 uM assessed as inhibition of parasite growth relative to control; format: functional
# [17] = system: Leishmania major; test: Antiproliferative activity against promastigote form of Leishmania major assessed as lethal dose; format: functional; conditions: read-out: LD50 (the source's name)
# [18] = system: Leishmania major; test: Antileishmanial activity against promastigote form of Leishmania major assessed as inhibition of parasite growth by Litchfield-Wilcoxon method; format: functional, organism-based
# [19] = system: Leishmania major; test: Antileishmanial activity against promastigote form of Leishmania major assessed as inhibition at 0.1 uM incubated for 72 hrs by MTT assay relative to control; format: functional
# [20] = system: Leishmania major; test: Antileishmanial activity against promastigote form of Leishmania major; format: functional, organism-based
# [21] = system: Leishmania major; test: Antileishmanial activity against amastigote form of Leishmania major; format: functional, organism-based
# [22] = system: Leishmania major; test: Antileishmanial activity against promastigote form of Leishmania major assessed as inhibition incubated for 72 hrs by MTT assay; format: functional, organism-based
# [23] = system: Leishmania amazonensis; test: Antileishmanial activity against promastigote form of Leishmania amazonensis assessed as inhibition of parasite growth at 100 uM incubated for 72 hrs by neubauer counting chamber analysis relative to control; format: functional
# [24] = system: Leishmania amazonensis; test: Antileishmanial activity against Leishmania amazonensis infected in BALB/c mouse assessed as reduction in parasite load at 10 mg/kg, sc administered for 14 days relative to control; format: functional; parameters: scale not given: the % may be the effect or the level left; conditions: time 14.0 day
compound,measurement,setting,value
C/C(=C\COc1cc(O)cc2oc(=O)ccc12)C/C=C/C(C)(C)OO,IC50,[1],26.2 µM
COc1cc(O[C@@H]2O[C@H](CO)[C@@H](O)[C@H](O)[C@H]2O)c2c(-c3ccc(O)c(O)c3)cc(=O)oc2c1,IC50,[2],> 90 µM
same,IC50,[3],28.9 µM
CCC(C)C(=O)c1c(O)c(CC=C(C)C)c(OC)c2c(-c3ccccc3)cc(=O)oc12 (stereo not given),IC50,[4],34 µM
same,IC50,[5],2.4 µM
Cc1cc(=O)oc2cc(OCCCCOc3cc(Cl)ccc3Oc3ccc(Cl)cc3Cl)ccc12,IC50,[6],53.1 µM
same,inhibition at 20 µg/mL,[7],57.1%
COC(=O)C1=C(N)Oc2cc(O)c3c(C)cc(=O)oc3c2C1c1ccc(Cl)cc1 (stereo not given),IC50,[8],38.4 µM
COC(=O)C1=C(N)Oc2cc(O)c3c(C)cc(=O)oc3c2C1c1ccc(Br)cc1 (stereo not given),IC50,[8],33.2 µM
CC1(O)CC(CC(C)(O)C(O)COc2ccc3ccc(=O)oc3c2O)OC1=O (stereo not given),IC50,[1],> 100 µM
COc1cc2ccc(=O)oc2cc1O [SCOPOLETIN],IC50,[9],> 50 µM
same,IC50,[10],> 50 µM
same,IC50,[11],> 50 µM
C[C@@H]1[C@H](O)[C@@H](C)/C=C/C=C/C=C/C=C/C=C/C=C/C=C/[C@H](O[C@@H]2O[C@H](C)[C@@H](O)[C@H](N)[C@@H]2O)C[C@@H]2O[C@](O)(C[C@@H](O)C[C@@H](O)[C@H](O)CC[C@@H](O)C[C@@H](O)CC(=O)O[C@H]1C)C[C@H](O)[C@H]2C(=O)O [AMPHOTERICIN B],inhibition at 100 µM,[12],79.8%
COc1cc2ccc(=O)oc2c2c1OC(C)(C)C=C2,IC50,[13],70 µM
same,inhibition at 200 µM,[14],100%
CCC(C)C(=O)c1c(O)c(CCC(C)C)c(O)c2c1OC(=O)CC2c1ccccc1 (stereo not given),selectivity ratio,[15],142
same,IC50,[4],0.6 µM
same,IC50,[5],0.9 µM
CCCc1cc(=O)oc2c(C(=O)C(C)CC)c(O)c(CC=C(C)C)c(O)c12 (stereo not given),IC50,[5],30.1 µM
C=C(C)C(CC/C(C)=C/COc1cc(O)cc2oc(=O)ccc12)OO (stereo not given),IC50,[1],20.2 µM
O=c1cc(-c2ccccc2)c2c(O)cc(O)cc2o1,IC50,[5],60.2 µM
N#CCC1=NN=C(c2cc3ccccc3oc2=O)C(CC(=O)c2ccc(Cl)cc2)O1 (stereo not given),IC50,[2],14.2 µM
same,inhibition at 50 µM,[16],95%
CC(C)=CCC/C(C)=C/COc1ccc2ccc(=O)oc2c1,LC50,[17],30 µM
same,IC50,[18],17.1 µM
Cc1cccc(-n2c(-c3cc4ccccc4oc3=O)cs/c2=N/NC(=O)c2cc3ccccc3oc2=O)c1C,inhibition at 0.1 µM,[19],53.9%
same,inhibition at 100 µM,[12],70.4%
Cc1cccc(-n2c(-c3cc4ccccc4oc3=O)cs/c2=N/NC(=O)c2cc3ccccc3oc2=O)c1,inhibition at 0.1 µM,[19],53.7%
same,inhibition at 100 µM,[12],62.7%
CC(=O)OC[C@H]1O[C@@H](Oc2ccc3c(-c4ccccc4)cc(=O)oc3c2)[C@H](OC(C)=O)[C@@H](OC(C)=O)[C@@H]1OC(C)=O,IC50,[13],10 µM
same,IC50,[8],34.9 µM
C=C1CC(CC(C)(O)C(O)COc2ccc3ccc(=O)oc3c2O)OC1=O (stereo not given),IC50,[1],12.1 µM
COC(=O)C1=C(N)Oc2cc(O)c3c(C)cc(=O)oc3c2C1c1ccc([N+](=O)[O-])cc1 (stereo not given),IC50,[8],33.1 µM
CC1=CC[C@H]2[C@@H](CC[C@@H](O)C2(C)C)[C@]1(C)COc1ccc2ccc(=O)oc2c1,IC50,[20],46.8 µg/mL
COc1ccc2ccc(=O)oc2c1CC=C(C)C [OSTHOLE],IC50,[21],14.9 µg/mL
O=c1oc2ccccc2cc1-c1nnc2n1N=C(c1ccc(Cl)c(Cl)c1)CS2,IC50,[22],0.89 µM
COc1cc(OC)c2ccc(=O)oc2c1OC,inhibition at 100 µM,[23],91%
same,IC50,[13],57.7 µM
MEGLUMINE ANTIMONATE,Activity,[24],95.2%
